Measured values reported in patent US9549932B2, “2-(morpholin-4-yl)-1,7-naphthyridines” (BAYER PHARMA AKTIENGESELLSCHAFT, priority 2014, dated 2017).

Target: full-length human ATR protein (Homo sapiens (Human), UniProt Q13535)
Assay: Binding assay ATR (TR-FRET tracer displacement)
Settings: tracer A, TR-FRET; read-out: ATR binding (tracer A) IC50
In short: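 Full-length human GST-ATR co-purified with ATRIP, pre-complexed 30 min at 22 °C with anti-GST-Tb antibody, then pre-bound with compound 10 min. Tracer A or B added (2 µl of 100 nM solution), 30 min at 22 °C.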

Chain of full-length human ATR protein (Q13535 other isoform, or with tags, fused parts or gaps): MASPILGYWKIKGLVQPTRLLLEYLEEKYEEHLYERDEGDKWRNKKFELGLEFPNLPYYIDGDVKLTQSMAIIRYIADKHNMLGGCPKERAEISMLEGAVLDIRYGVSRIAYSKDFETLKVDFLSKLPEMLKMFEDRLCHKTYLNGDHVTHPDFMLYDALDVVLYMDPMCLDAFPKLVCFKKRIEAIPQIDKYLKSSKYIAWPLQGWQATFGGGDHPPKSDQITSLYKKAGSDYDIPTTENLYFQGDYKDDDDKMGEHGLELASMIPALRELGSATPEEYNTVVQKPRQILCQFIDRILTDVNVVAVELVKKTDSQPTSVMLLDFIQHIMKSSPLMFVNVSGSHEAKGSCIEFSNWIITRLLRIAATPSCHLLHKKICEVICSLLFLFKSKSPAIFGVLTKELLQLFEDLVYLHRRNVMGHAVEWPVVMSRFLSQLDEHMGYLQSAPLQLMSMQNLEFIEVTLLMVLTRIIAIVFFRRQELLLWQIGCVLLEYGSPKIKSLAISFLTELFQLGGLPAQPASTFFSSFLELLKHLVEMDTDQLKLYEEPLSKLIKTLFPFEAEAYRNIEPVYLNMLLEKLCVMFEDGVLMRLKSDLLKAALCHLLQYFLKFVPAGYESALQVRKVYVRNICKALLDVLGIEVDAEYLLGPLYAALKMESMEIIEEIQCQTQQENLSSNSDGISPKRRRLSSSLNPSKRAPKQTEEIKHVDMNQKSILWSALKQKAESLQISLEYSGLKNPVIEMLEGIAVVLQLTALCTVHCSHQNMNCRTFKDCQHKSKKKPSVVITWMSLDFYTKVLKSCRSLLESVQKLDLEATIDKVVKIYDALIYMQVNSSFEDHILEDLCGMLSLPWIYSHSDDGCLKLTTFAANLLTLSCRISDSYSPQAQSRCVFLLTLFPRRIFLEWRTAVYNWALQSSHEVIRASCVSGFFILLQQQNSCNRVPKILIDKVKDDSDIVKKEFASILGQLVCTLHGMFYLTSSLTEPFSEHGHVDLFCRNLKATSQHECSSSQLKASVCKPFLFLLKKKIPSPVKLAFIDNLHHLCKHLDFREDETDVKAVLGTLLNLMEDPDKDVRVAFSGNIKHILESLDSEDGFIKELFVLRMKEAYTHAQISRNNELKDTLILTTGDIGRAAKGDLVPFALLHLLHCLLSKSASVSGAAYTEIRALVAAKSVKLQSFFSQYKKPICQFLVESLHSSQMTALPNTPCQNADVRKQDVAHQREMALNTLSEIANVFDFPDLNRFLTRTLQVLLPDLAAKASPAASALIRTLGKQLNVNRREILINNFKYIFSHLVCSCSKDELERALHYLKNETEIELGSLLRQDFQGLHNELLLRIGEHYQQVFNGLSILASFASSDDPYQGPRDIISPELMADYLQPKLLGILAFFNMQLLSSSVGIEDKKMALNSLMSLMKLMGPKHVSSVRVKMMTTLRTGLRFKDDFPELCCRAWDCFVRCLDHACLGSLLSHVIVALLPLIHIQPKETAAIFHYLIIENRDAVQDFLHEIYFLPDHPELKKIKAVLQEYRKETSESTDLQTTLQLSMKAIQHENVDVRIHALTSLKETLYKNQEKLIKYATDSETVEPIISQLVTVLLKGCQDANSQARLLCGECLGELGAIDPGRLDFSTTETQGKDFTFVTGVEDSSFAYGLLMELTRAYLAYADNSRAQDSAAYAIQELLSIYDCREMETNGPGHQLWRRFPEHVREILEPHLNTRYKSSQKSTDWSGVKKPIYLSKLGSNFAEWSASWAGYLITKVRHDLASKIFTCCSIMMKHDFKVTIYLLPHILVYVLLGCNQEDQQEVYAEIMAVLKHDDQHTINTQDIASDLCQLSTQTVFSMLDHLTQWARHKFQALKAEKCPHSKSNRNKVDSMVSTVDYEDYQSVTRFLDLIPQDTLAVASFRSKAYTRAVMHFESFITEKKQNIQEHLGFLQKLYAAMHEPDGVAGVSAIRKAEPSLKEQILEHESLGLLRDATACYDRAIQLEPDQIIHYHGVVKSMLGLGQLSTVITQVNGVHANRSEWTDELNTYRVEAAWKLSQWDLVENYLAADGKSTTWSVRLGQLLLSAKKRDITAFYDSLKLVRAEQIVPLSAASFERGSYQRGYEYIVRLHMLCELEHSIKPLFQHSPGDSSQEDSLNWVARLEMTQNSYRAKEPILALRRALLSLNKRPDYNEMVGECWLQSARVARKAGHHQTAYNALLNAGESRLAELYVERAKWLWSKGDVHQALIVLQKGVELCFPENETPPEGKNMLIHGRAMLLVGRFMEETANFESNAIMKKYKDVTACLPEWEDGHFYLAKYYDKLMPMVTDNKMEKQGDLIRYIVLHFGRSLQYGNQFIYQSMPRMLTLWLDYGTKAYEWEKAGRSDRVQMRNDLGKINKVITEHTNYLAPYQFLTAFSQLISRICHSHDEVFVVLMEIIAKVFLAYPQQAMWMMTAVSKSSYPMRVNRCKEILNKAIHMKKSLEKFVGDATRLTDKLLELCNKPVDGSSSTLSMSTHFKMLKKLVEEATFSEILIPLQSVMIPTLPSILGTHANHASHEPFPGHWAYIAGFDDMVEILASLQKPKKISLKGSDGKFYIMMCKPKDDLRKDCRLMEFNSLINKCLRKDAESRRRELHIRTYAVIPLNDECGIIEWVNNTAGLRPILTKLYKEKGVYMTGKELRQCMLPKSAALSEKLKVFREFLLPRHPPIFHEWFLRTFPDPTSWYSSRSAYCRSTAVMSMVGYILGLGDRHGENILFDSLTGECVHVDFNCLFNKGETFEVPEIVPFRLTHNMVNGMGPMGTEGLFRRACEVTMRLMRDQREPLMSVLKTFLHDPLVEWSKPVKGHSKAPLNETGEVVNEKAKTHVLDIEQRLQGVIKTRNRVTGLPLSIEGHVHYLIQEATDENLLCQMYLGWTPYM
Chain of full-length human ATR protein (Q8WXE1 other isoform, or with tags, fused parts or gaps partner): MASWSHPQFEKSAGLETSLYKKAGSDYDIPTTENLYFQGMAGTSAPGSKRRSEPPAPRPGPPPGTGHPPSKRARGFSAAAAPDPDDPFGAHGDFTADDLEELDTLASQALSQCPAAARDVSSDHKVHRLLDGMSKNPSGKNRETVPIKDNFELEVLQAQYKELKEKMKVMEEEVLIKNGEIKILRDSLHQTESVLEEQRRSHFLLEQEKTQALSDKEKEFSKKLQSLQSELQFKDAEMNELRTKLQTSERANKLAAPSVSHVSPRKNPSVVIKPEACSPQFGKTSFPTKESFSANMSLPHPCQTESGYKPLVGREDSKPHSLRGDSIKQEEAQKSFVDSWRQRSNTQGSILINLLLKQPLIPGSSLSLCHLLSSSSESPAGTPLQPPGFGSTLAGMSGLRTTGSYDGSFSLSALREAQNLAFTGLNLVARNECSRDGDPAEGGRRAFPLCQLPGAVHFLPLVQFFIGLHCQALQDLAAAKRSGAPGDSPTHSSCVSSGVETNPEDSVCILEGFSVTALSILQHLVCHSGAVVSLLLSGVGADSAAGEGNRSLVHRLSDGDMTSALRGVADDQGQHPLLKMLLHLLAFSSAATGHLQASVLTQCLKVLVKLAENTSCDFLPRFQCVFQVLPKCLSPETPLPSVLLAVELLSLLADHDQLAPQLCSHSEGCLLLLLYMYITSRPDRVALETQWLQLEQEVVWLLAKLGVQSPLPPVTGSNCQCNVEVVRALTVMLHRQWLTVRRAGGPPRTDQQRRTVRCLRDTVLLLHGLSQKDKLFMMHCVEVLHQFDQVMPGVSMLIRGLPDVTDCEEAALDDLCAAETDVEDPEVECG

| SMILES | IC50 [nM] |
| --- | --- |
| C[C@@H]1COCCN1c1cc(-c2ccn[nH]2)c2ccnc(-c3ccn[nH]3)c2n1 [Example 205, 2-[(3R)-3-methylmorpholin-4-yl]-4,8-di(1H-pyrazol-5-yl)-1,7-naphthyridine] | 49.3 |
| CN(C)c1cc(N2CCOCC2)nc2c(-c3ccn[nH]3)nccc12 [Example 206, N,N-dimethyl-2-(morpholin-4-yl)-8-(1H-pyrazol-5-yl)-1,7-naphthyridin-4-amine] | 404 |
| c1ccc(Sc2cc(N3CCOCC3)nc3c(-c4ccn[nH]4)nccc23)cc1 [Example 207, 2-(morpholin-4-yl)-4-(phenylsulfanyl)-8-(1H-pyrazol-5-yl)-1,7-naphthyridine] | 542 |
| CC(C)Nc1cc(N2CCOCC2)nc2c(-c3ccn[nH]3)nccc12 [Example 208, 2-(morpholin-4-yl)-N-(propan-2-yl)-8-(1H-pyrazol-5-yl)-1,7-naphthyridin-4-amine] | 1160 |
| CCSc1cc(N2CCOCC2)nc2c(-c3ccn[nH]3)nccc12 [Example 209, 4-(ethylsulfanyl)-2-(morpholin-4-yl)-8-(1H-pyrazol-5-yl)-1,7-naphthyridine] | 385 |
| CC(C)Sc1cc(N2CCOCC2)nc2c(-c3ccn[nH]3)nccc12 [Example 210, 2-(morpholin-4-yl)-4-(propan-2-ylsulfanyl)-8-(1H-pyrazol-5-yl)-1,7-naphthyridine] | 231 |
| c1c[nH]c(-c2cc(N3CCOCC3)nc3c(-c4ccn[nH]4)nccc23)c1 [Example 211, 2-(morpholin-4-yl)-8-(1H-pyrazol-5-yl)-4-(1H-pyrrol-2-yl)-1,7-naphthyridine] | 547 |
| c1cc(-c2nccc3c(-c4cc[nH]c4)cc(N4CCOCC4)nc23)[nH]n1 [Example 212, 2-(morpholin-4-yl)-8-(1H-pyrazol-5-yl)-4-(1H-pyrrol-3-yl)-1,7-naphthyridine] | > 20000 |
| COc1ccc(Sc2cc(N3CCOCC3)nc3c(-c4ccn[nH]4)nccc23)cc1 [Example 213] | 53.5 |
| Cc1cc(-c2cc(N3CCOCC3)nc3c(-c4ccn[nH]4)nccc23)n[nH]1 [Example 214, 4-(5-methyl-1H-pyrazol-3-yl)-2-(morpholin-4-yl)-8-(1H-pyrazol-5-yl)-1,7-naphthyridine] | 176 |
| O=C1CCCN1c1cc(N2CCOCC2)nc2c(-c3ccn[nH]3)nccc12 [Example 215, 1-[2-(morpholin-4-yl)-8-(1H-pyrazol-5-yl)-1,7-naphthyridin-4-yl]pyrrolidin-2-one] | 317 |
| O=C1CCCCN1c1cc(N2CCOCC2)nc2c(-c3ccn[nH]3)nccc12 [Example 217, 1-[2-(morpholin-4-yl)-8-(1H-pyrazol-5-yl)-1,7-naphthyridin-4-yl]piperidin-2-one] | 802 |
| Cc1ncccc1-c1cc(N2CCOC[C@H]2C)nc2c(-c3ccn[nH]3)nccc12 [Example 218, 2-[(3R)-3-methylmorpholin-4-yl]-4-(2-methylpyridin-3-yl)-8-(1H-pyrazol-5-yl)-1,7-naphthyridine] | 11.8 |
| CC(C)Oc1ncccc1-c1cc(N2CCOC[C@H]2C)nc2c(-c3ccn[nH]3)nccc12 [Example 219, 2-[(3R)-3-methylmorpholin-4-yl]-4-[2-(propan-2-yloxy)pyridin-3-yl]-8-(1H-pyrazol-5-yl)-1,7-naphthyridine] | 132 |
| COc1ncccc1-c1cc(N2CCOC[C@H]2C)nc2c(-c3ccn[nH]3)nccc12 [Example 220, 4-(2-methoxypyridin-3-yl)-2-[(3R)-3-methylmorpholin-4-yl]-8-(1H-pyrazol-5-yl)-1,7-naphthyridine] | 32.4 |
| c1cc(-c2cc(N3CCOCC3)nc3c(-c4ccn[nH]4)nccc23)ccn1 [Example 221, 2-(morpholin-4-yl)-8-(1H-pyrazol-5-yl)-4-(pyridin-4-yl)-1,7-naphthyridine] | 196 |
| COc1ccc(Sc2cc(N3CCOC[C@H]3C)nc3c(-c4ccn[nH]4)nccc23)cc1 [Example 222] | 50.2 |
| C[C@@H]1COCCN1c1cc(-c2ccnc(N3CCOCC3)c2F)c2ccnc(-c3ccn[nH]3)c2n1 [Example 223, 4-[3-fluoro-2-(morpholin-4-yl)pyridin-4-yl]-2-[(3R)-3-methylmorpholin-4-yl]-8-(1H-pyrazol-5-yl)-1,7-naphthyridine] | 124 |
| Cc1cc(-c2cc(N3CCOCC3)nc3c(-c4ccn[nH]4)nccc23)cnc1F [Example 224, 4-(6-fluoro-5-methylpyridin-3-yl)-2-(morpholin-4-yl)-8-(1H-pyrazol-5-yl)-1,7-naphthyridine] | 52.1 |
| O=C1OCCCN1c1cc(N2CCOCC2)nc2c(-c3ccn[nH]3)nccc12 [Example 225, 3-[2-(morpholin-4-yl)-8-(1H-pyrazol-5-yl)-1,7-naphthyridin-4-yl]-1,3-oxazinan-2-one] | 447 |

| SMILES | IC50 [nM] |
| --- | --- |
| O=C1OCCN1c1cc(N2CCOCC2)nc2c(-c3ccn[nH]3)nccc12 [Example 226, 3-[2-(morpholin-4-yl)-8-(1H-pyrazol-5-yl)-1,7-naphthyridin-4-yl]-1,3-oxazolidin-2-one] | 1140 |
| COc1cnccc1-c1cc(N2CCOC[C@H]2C)nc2c(-c3ccn[nH]3)nccc12 [Example 227, 4-(3-methoxypyridin-4-yl)-2-[(3R)-3-methylmorpholin-4-yl]-8-(1H-pyrazol-5-yl)-1,7-naphthyridine] | 75.5 |
| C[C@@H]1COCCN1c1cc(-c2ccc(F)nc2F)c2ccnc(-c3ccn[nH]3)c2n1 [Example 228, 4-(2,6-difluoropyridin-3-yl)-2-[(3R)-3-methylmorpholin-4-yl]-8-(1H-pyrazol-5-yl)-1,7-naphthyridine] | 30.1 |
| C[C@@H]1COCCN1c1cc(-c2cc(Cl)cnc2F)c2ccnc(-c3ccn[nH]3)c2n1 [Example 229, 4-(5-chloro-2-fluoropyridin-3-yl)-2-[(3R)-3-methylmorpholin-4-yl]-8-(1H-pyrazol-5-yl)-1,7-naphthyridine] | 28.4 |
| C[C@@H]1COCCN1c1cc(-c2ccncc2F)c2ccnc(-c3ccn[nH]3)c2n1 [Example 230, 4-(3-fluoropyridin-4-yl)-2-[(3R)-3-methylmorpholin-4-yl]-8-(1H-pyrazol-5-yl)-1,7-naphthyridine] | 31.7 |
| Cc1cc(-c2cc(N3CCOC[C@H]3C)nc3c(-c4ccn[nH]4)nccc23)cnc1C [Example 232, 4-(5,6-dimethylpyridin-3-yl)-2-[(3R)-3-methylmorpholin-4-yl]-8-(1H-pyrazol-5-yl)-1,7-naphthyridine] | 39.1 |
| Cc1ncc(-c2cc(N3CCOC[C@H]3C)nc3c(-c4ccn[nH]4)nccc23)cc1F [Example 233, 4-(5-fluoro-6-methylpyridin-3-yl)-2-[(3R)-3-methylmorpholin-4-yl]-8-(1H-pyrazol-5-yl)-1,7-naphthyridine] | 42 |
| Cc1cc(-c2cc(N3CCOC[C@H]3C)nc3c(-c4ccn[nH]4)nccc23)cs1 [Example 234, 2-[(3R)-3-methylmorpholin-4-yl]-4-(5-methylthiophen-3-yl)-8-(1H-pyrazol-5-yl)-1,7-naphthyridine] | 29.2 |
| COc1ccsc1-c1cc(N2CCOC[C@H]2C)nc2c(-c3ccn[nH]3)nccc12 [Example 235, 4-(3-methoxythiophen-2-yl)-2-[(3R)-3-methylmorpholin-4-yl]-8-(1H-pyrazol-5-yl)-1,7-naphthyridine] | 21.3 |
| C[C@@H]1COCCN1c1cc(-c2ccsc2Cl)c2ccnc(-c3ccn[nH]3)c2n1 [Example 236, 4-(2-chlorothiophen-3-yl)-2-[(3R)-3-methylmorpholin-4-yl]-8-(1H-pyrazol-5-yl)-1,7-naphthyridine] | 28.2 |
| C[C@@H]1COCCN1c1cc(-c2cncc3ccccc23)c2ccnc(-c3ccn[nH]3)c2n1 [Example 237, 4-(isoquinolin-4-yl)-2-[(3R)-3-methylmorpholin-4-yl]-8-(1H-pyrazol-5-yl)-1,7-naphthyridine] | 18.2 |
| C[C@@H]1COCCN1c1cc(-c2ccc(Cl)s2)c2ccnc(-c3ccn[nH]3)c2n1 [Example 238, 4-(5-chlorothiophen-2-yl)-2-[(3R)-3-methylmorpholin-4-yl]-8-(1H-pyrazol-5-yl)-1,7-naphthyridine] | 34.5 |
| Cc1csc(-c2cc(N3CCOC[C@H]3C)nc3c(-c4ccn[nH]4)nccc23)c1 [Example 239, 2-[(3R)-3-methylmorpholin-4-yl]-4-(4-methylthiophen-2-yl)-8-(1H-pyrazol-5-yl)-1,7-naphthyridine] | 20.3 |
| Cc1cc(-c2cc(N3CCOC[C@H]3C)nc3c(-c4ccn[nH]4)nccc23)c(C)s1 [Example 240, 4-(2,5-dimethylthiophen-3-yl)-2-[(3R)-3-methylmorpholin-4-yl]-8-(1H-pyrazol-5-yl)-1,7-naphthyridine] | 30 |
| C[C@@H]1COCCN1c1cc(C2CCSCC2)c2ccnc(-c3ccn[nH]3)c2n1 [Example 241, 2-[(3R)-3-methylmorpholin-4-yl]-8-(1H-pyrazol-5-yl)-4-(tetrahydro-2H-thiopyran-4-yl)-1,7-naphthyridine] | 4.06 |
| C[C@@H]1COCCN1c1cc(C2=CCCN(C)C2)c2ccnc(-c3ccn[nH]3)c2n1 [Example 242, 2-[(3R)-3-methylmorpholin-4-yl]-4-(1-methyl-1,2,5,6-tetrahydropyridin-3-yl)-8-(1H-pyrazol-5-yl)-1,7-naphthyridine] | 95.9 |
| C[C@@H]1COCCN1c1cc(C2=CCN(C)CC2)c2ccnc(-c3ccn[nH]3)c2n1 [Example 243, 2-[(3R)-3-methylmorpholin-4-yl]-4-(1-methyl-1,2,3,6-tetrahydropyridin-4-yl)-8-(1H-pyrazol-5-yl)-1,7-naphthyridine] | 36.5 |
| C[C@@H]1COCCN1c1cc(C2CCCN(C)C2)c2ccnc(-c3ccn[nH]3)c2n1 (stereo partly drawn) [Example 244, 2-[(3R)-3-methylmorpholin-4-yl]-4-[1-methylpiperidin-3-yl]-8-(1H-pyrazol-5-yl)-1,7-naphthyridine] | 159 |
| C[C@@H]1COCCN1c1cc(C2=CCNCC2)c2ccnc(-c3ccn[nH]3)c2n1 [Example 245, 2-[(3R)-3-methylmorpholin-4-yl]-8-(1H-pyrazol-5-yl)-4-(1,2,3,6-tetrahydropyridin-4-yl)-1,7-naphthyridine] | 32 |
